The source of these data is patent publication US4512986A, “Progrestationally active steroids” (priority 1983, dated 1985).

The test has as its target T1, Cytosol Progesterone Receptor of the Estrogen-primed Immature Rabbit Uterus (Oryctolagus cuniculus, UniProt P06186).
T1 construct: cytosol progesterone receptor of the estrogen-primed immature rabbit uterus; tissue Dutchland Laboratories, Inc., Denver, Pa (animals); host or cells: uterus cytosol of estradiol-treated immature female New Zealand White rabbits
T1 sequence (P06186 1-930): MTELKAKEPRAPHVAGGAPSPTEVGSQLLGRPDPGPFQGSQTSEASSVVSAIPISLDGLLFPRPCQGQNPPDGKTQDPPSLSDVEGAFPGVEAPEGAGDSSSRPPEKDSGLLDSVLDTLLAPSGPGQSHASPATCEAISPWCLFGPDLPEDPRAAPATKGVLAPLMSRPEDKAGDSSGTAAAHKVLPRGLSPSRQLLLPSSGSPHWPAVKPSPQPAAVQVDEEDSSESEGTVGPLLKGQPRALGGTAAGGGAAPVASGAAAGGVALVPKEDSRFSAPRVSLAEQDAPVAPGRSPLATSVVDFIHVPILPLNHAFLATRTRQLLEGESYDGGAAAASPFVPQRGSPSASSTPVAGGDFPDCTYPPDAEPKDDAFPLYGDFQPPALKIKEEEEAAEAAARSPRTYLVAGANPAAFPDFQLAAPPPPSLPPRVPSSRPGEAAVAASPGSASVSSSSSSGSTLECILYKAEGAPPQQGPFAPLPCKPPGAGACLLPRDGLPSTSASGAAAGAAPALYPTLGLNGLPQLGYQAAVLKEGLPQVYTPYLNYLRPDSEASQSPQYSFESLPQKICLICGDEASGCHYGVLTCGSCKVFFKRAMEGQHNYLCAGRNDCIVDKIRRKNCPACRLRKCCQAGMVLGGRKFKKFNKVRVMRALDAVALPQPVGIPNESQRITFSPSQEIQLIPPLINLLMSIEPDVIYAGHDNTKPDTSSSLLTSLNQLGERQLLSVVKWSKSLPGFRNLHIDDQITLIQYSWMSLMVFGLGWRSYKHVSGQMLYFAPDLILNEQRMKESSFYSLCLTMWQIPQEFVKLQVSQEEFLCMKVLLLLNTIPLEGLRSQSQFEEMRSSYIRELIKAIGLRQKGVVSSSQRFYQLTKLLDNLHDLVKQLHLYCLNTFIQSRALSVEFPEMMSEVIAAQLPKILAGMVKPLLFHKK
Briefly: Relative binding affinity for progesterone receptor (competition with 3H-progesterone). Also noted: species or system rabbit (New Zealand White).

On to `C#C[C@]1(C(C)=O)CC[C@H]2[C@@H]3CCC4=CC(=O)CC[C@]4(C)[C@H]3CC[C@@]21C` [17α-Ethynylprogesterone, 17α-ethynylprogesterone], for which the “RBA, mean of assays (X±S.D.)” value (16 to 18 hour incubation at 0° C., spurious value 11 excluded) worked out at 189±55. The RBA was found to be 156% (Assay 1, 16-18 hour incubation, progesterone = 100, 5α-dihydro-17α-ethynyl: lot 1); 267% (Assay 2, 16-18 hour incubation, progesterone = 100, 5α-dihydro-17α-ethynyl: lot 1); 144% (Assay 3, 16-18 hour incubation, progesterone = 100, 5α-dihydro-17α-ethynyl: lot 1); 352 (two-hour incubation at 0° C.).
